Values quoted from earlier work in patent publication US20110008867A1, “COMPOSITIONS AND METHODS FOR THE PRODUCTION OF A COMPOUND” (GREENLIGHT BIOSCIENCES, priority 2008, published 2011).

Assays:
E. coli = details: in E. coli; concentration that inhibits cell growth
yeast = details: in yeast; concentration that inhibits cell growth

Row | SMILES | Inhibition Concentration (E. coli) | Inhibition Concentration (yeast) [%]
1 | CCO [Ethanol] | 5% | 15
2 | CCCCO [1-butanol] | 1.3% in E. coli | 
3 | CCCCCCCCCCO [1-decanol] | 0.000236% in E. Coli | 
4 | CCCCCO [1-pentanol] | 0.25% in E. Coli | 
